Experimental data: ChEMBL document CHEMBL3400015, “Tertiary amides of Salinomycin: A new group of antibacterial agents against Bacillus anthracis and methicillin-resistant Staphylococcus epidermidis” (Bioorg Med Chem Lett, 2015)
Converted amounts (≈) assume the structure as drawn.

Tests used:
Staphylococcus aureus [1] = assay: Antimicrobial activity against Staphylococcus aureus ATCC 25923 after 18 hrs by twofold serial broth dilution method; type: functional; conditions: ATCC 25923, 18 h
Staphylococcus aureus [2] = assay: Antimicrobial activity against Staphylococcus aureus […] after 18 hrs by twofold serial broth dilution method; type: functional
[3] = tested on: Staphylococcus epidermidis; assay: Antimicrobial activity against Staphylococcus epidermidis ATCC 35984 after 18 hrs by twofold serial broth dilution method; type: functional; conditions: ATCC 35984, 18 h
Escherichia coli [4] = assay: Antimicrobial activity against Escherichia coli ATCC 10538 after 18 hrs by twofold serial broth dilution method; type: functional; conditions: ATCC 10538, 18 h
Escherichia coli [5] = assay: Antimicrobial activity against Escherichia coli ATCC 25922 after 18 hrs by twofold serial broth dilution method; type: functional; conditions: ATCC 25922, 18 h
Escherichia coli [6] = assay: Antimicrobial activity against Escherichia coli NCTC 8196 after 18 hrs by twofold serial broth dilution method; type: functional; conditions: NCTC 8196, 18 h
Pseudomonas aeruginosa [7] = assay: Antimicrobial activity against Pseudomonas aeruginosa ATCC 15442 after 18 hrs by twofold serial broth dilution method; type: functional; conditions: ATCC 15442, 18 h
Pseudomonas aeruginosa [8] = assay: Antimicrobial activity against Pseudomonas aeruginosa NCTC 6749 after 18 hrs by twofold serial broth dilution method; type: functional; conditions: NCTC 6749, 18 h
Pseudomonas aeruginosa [9] = assay: Antimicrobial activity against Pseudomonas aeruginosa ATCC 27853 after 18 hrs by twofold serial broth dilution method; type: functional; conditions: ATCC 27853, 18 h
Bacillus anthracis = assay: Antimicrobial activity against Bacillus anthracis 34F2 after 18 hrs by twofold serial broth dilution method; type: functional; conditions: 34F2, 18 h
Staphylococcus aureus [10] = assay: Bactericidal activity against Staphylococcus aureus NCTC 4163 after 24 hrs; type: functional; conditions: NCTC 4163, 24 h, read-out: MBC99.9
Staphylococcus aureus [11] = assay: Bactericidal activity against Staphylococcus aureus ATCC 6538 after 24 hrs; type: functional; conditions: ATCC 6538, 24 h, read-out: MBC99.9
Staphylococcus aureus [12] = assay: Bactericidal activity against Staphylococcus aureus […] after 24 hrs; type: functional; conditions: read-out: MBC99.9
[13] = tested on: Staphylococcus epidermidis; assay: Bactericidal activity against Staphylococcus epidermidis ATCC 12228 after 24 hrs; type: functional; conditions: ATCC 12228, 24 h, read-out: MBC99.9
[14] = tested on: Staphylococcus epidermidis; assay: Bactericidal activity against Staphylococcus epidermidis ATCC 35984 after 24 hrs; type: functional; conditions: ATCC 35984, 24 h, read-out: MBC99.9
Escherichia coli [15] = assay: Bactericidal activity against Escherichia coli ATCC 10538 after 24 hrs; type: functional; conditions: ATCC 10538, 24 h, read-out: MBC99.9
Escherichia coli [16] = assay: Bactericidal activity against Escherichia coli ATCC 25922 after 24 hrs; type: functional; conditions: ATCC 25922, 24 h, read-out: MBC99.9
Escherichia coli [17] = assay: Bactericidal activity against Escherichia coli NCTC 8196 after 24 hrs; type: functional; conditions: NCTC 8196, 24 h, read-out: MBC99.9
Pseudomonas aeruginosa [18] = assay: Bactericidal activity against Pseudomonas aeruginosa ATCC 15442 after 24 hrs; type: functional; conditions: ATCC 15442, 24 h, read-out: MBC99.9
Pseudomonas aeruginosa [19] = assay: Bactericidal activity against Pseudomonas aeruginosa NCTC 6749 after 24 hrs; type: functional; conditions: NCTC 6749, 24 h, read-out: MBC99.9
Pseudomonas aeruginosa [20] = assay: Bactericidal activity against Pseudomonas aeruginosa ATCC 27853 after 24 hrs; type: functional; conditions: ATCC 27853, 24 h, read-out: MBC99.9
[21] = tested on: Staphylococcus epidermidis; assay: Antimicrobial activity against methicillin-resistant Staphylococcus epidermidis isolate 403/10 after 18 hrs by twofold serial broth dilution method; type: functional; conditions: isolate 403/10, 18 h
[22] = tested on: Staphylococcus epidermidis; assay: Antimicrobial activity against methicillin-resistant Staphylococcus epidermidis isolate 407/10 after 18 hrs by twofold serial broth dilution method; type: functional; conditions: isolate 407/10, 18 h
[23] = tested on: Staphylococcus epidermidis; assay: Antimicrobial activity against methicillin-resistant Staphylococcus epidermidis isolate 422/10 after 18 hrs by twofold serial broth dilution method; type: functional; conditions: isolate 422/10, 18 h
[24] = tested on: Staphylococcus epidermidis; assay: Antimicrobial activity against methicillin-resistant Staphylococcus epidermidis isolate 424/10 after 18 hrs by twofold serial broth dilution method; type: functional; conditions: isolate 424/10, 18 h
[25] = tested on: Staphylococcus epidermidis; assay: Antimicrobial activity against methicillin-resistant Staphylococcus epidermidis isolate 454/11 after 18 hrs by twofold serial broth dilution method; type: functional; conditions: isolate 454/11, 18 h
[26] = tested on: Staphylococcus epidermidis; assay: Antimicrobial activity against methicillin-resistant Staphylococcus epidermidis isolate 455/11 after 18 hrs by twofold serial broth dilution method; type: functional; conditions: isolate 455/11, 18 h
[27] = tested on: Staphylococcus epidermidis; assay: Antimicrobial activity against methicillin-resistant Staphylococcus epidermidis isolate 457/11 after 18 hrs by twofold serial broth dilution method; type: functional; conditions: isolate 457/11, 18 h
[28] = tested on: Staphylococcus epidermidis; assay: Antimicrobial activity against methicillin-resistant Staphylococcus epidermidis isolate 458/11 after 18 hrs by twofold serial broth dilution method; type: functional; conditions: isolate 458/11, 18 h
[29] = tested on: Staphylococcus epidermidis; assay: Antimicrobial activity against methicillin-resistant Staphylococcus epidermidis isolate 459/11 after 18 hrs by twofold serial broth dilution method; type: functional; conditions: isolate 459/11, 18 h
[30] = tested on: Staphylococcus epidermidis; assay: Antimicrobial activity against methicillin-resistant Staphylococcus epidermidis isolate 460/11 after 18 hrs by twofold serial broth dilution method; type: functional; conditions: isolate 460/11, 18 h
[31] = tested on: Staphylococcus epidermidis; assay: Antimicrobial activity against methicillin-resistant Staphylococcus epidermidis isolate 469/11 after 18 hrs by twofold serial broth dilution method; type: functional; conditions: isolate 469/11, 18 h
[32] = tested on: Staphylococcus epidermidis; assay: Antimicrobial activity against methicillin-resistant Staphylococcus epidermidis isolate 470/11 after 18 hrs by twofold serial broth dilution method; type: functional; conditions: isolate 470/11, 18 h
[33] = tested on: Staphylococcus epidermidis; assay: Bactericidal activity against methicillin-resistant Staphylococcus epidermidis isolate 403/10 after 24 hrs; type: functional; conditions: isolate 403/10, 24 h, read-out: MBC99.9
[34] = tested on: Staphylococcus epidermidis; assay: Bactericidal activity against methicillin-resistant Staphylococcus epidermidis isolate 404/10 after 24 hrs; type: functional; conditions: isolate 404/10, 24 h, read-out: MBC99.9
[35] = tested on: Staphylococcus epidermidis; assay: Bactericidal activity against methicillin-resistant Staphylococcus epidermidis isolate 407/10 after 24 hrs; type: functional; conditions: isolate 407/10, 24 h, read-out: MBC99.9
[36] = tested on: Staphylococcus epidermidis; assay: Bactericidal activity against methicillin-resistant Staphylococcus epidermidis isolate 424/10 after 24 hrs; type: functional; conditions: isolate 424/10, 24 h, read-out: MBC99.9
[37] = tested on: Staphylococcus epidermidis; assay: Bactericidal activity against methicillin-resistant Staphylococcus epidermidis isolate 455/11 after 24 hrs; type: functional; conditions: isolate 455/11, 24 h, read-out: MBC99.9
[38] = tested on: Staphylococcus epidermidis; assay: Bactericidal activity against methicillin-resistant Staphylococcus epidermidis isolate 458/11 after 24 hrs; type: functional; conditions: isolate 458/11, 24 h, read-out: MBC99.9
[39] = tested on: Staphylococcus epidermidis; assay: Bactericidal activity against methicillin-resistant Staphylococcus epidermidis isolate 459/11 after 24 hrs; type: functional; conditions: isolate 459/11, 24 h, read-out: MBC99.9
[40] = tested on: Staphylococcus epidermidis; assay: Bactericidal activity against methicillin-resistant Staphylococcus epidermidis isolate 460/11 after 24 hrs; type: functional; conditions: isolate 460/11, 24 h, read-out: MBC99.9
[41] = tested on: Staphylococcus epidermidis; assay: Bactericidal activity against methicillin-resistant Staphylococcus epidermidis isolate 461/11 after 24 hrs; type: functional; conditions: isolate 461/11, 24 h, read-out: MBC99.9
Bacillus subtilis [42] = assay: Genotoxicity in rec-positive Bacillus subtilis H17 at 2 ug/9 mm disc after 24 hrs by disc diffusion method; type: toxicity, organism-based
Bacillus subtilis [43] = assay: Genotoxicity in rec-negative Bacillus subtilis M45 at 2 ug/9 mm disc after 24 hrs by disc diffusion method; type: toxicity, organism-based

CC[C@@H](C(=O)[C@@H](C)[C@@H](O)[C@H](C)[C@@H]1O[C@@H]([C@@H](CC)C(=O)N(CCO)CCO)CC[C@@H]1C)[C@H]1O[C@]2(C=C[C@@H](O)[C@]3(CC[C@@](C)([C@H]4CC[C@](O)(CC)[C@H](C)O4)O3)O2)[C@H](C)C[C@@H]1C
MIC (Staphylococcus aureus [1]): 4 µg/mL (≈ 4.77 µM)
MIC (Staphylococcus aureus [2]): 4 µg/mL (≈ 4.77 µM)
MIC [3]: 4 µg/mL (≈ 4.77 µM)
MIC (Escherichia coli [4]): > 256 µg/mL
MIC (Escherichia coli [5]): > 256 µg/mL
MIC (Escherichia coli [6]): > 256 µg/mL
MIC (Pseudomonas aeruginosa [7]): > 256 µg/mL
MIC (Pseudomonas aeruginosa [8]): > 256 µg/mL
MIC (Pseudomonas aeruginosa [9]): > 256 µg/mL
MIC (Bacillus anthracis): 2 µg/mL (≈ 2.39 µM)
MBC (Staphylococcus aureus [10]): 256 µg/mL (≈ 305 µM)
MBC (Staphylococcus aureus [11]): 256 µg/mL (≈ 305 µM)
MBC (Staphylococcus aureus [12]): 128 µg/mL (≈ 153 µM)
MBC [13]: 256 µg/mL (≈ 305 µM)
MBC [14]: 128 µg/mL (≈ 153 µM)
MBC (Escherichia coli [15]): > 256 µg/mL
MBC (Escherichia coli [16]): > 256 µg/mL
MBC (Escherichia coli [17]): > 256 µg/mL
MBC (Pseudomonas aeruginosa [18]): > 256 µg/mL
MBC (Pseudomonas aeruginosa [19]): > 256 µg/mL
MBC (Pseudomonas aeruginosa [20]): > 256 µg/mL
MIC [21]: 4 µg/mL (≈ 4.77 µM)
MIC [22]: 4 µg/mL (≈ 4.77 µM)
MIC [23]: 2 µg/mL (≈ 2.39 µM)
MIC [24]: 4 µg/mL (≈ 4.77 µM)
MIC [25]: 2 µg/mL (≈ 2.39 µM)
MIC [26]: 4 µg/mL (≈ 4.77 µM)
MIC [27]: 4 µg/mL (≈ 4.77 µM)
MIC [28]: 4 µg/mL (≈ 4.77 µM)
MIC [29]: 4 µg/mL (≈ 4.77 µM)
MIC [30]: 4 µg/mL (≈ 4.77 µM)
MIC [31]: 4 µg/mL (≈ 4.77 µM)
MIC [32]: 4 µg/mL (≈ 4.77 µM)
MBC [33]: 128 µg/mL (≈ 153 µM)
MBC [34]: 256 µg/mL (≈ 305 µM)
MBC [35]: 128 µg/mL (≈ 153 µM)
MBC [36]: 128 µg/mL (≈ 153 µM)
MBC [37]: 256 µg/mL (≈ 305 µM)
MBC [38]: 128 µg/mL (≈ 153 µM)
MBC [39]: 256 µg/mL (≈ 305 µM)
MBC [40]: 256 µg/mL (≈ 305 µM)
MBC [41]: 128 µg/mL (≈ 153 µM)
diameter of the inhibition zone (DIZ) (Bacillus subtilis [42]): 28 mm
diameter of the inhibition zone (DIZ) (Bacillus subtilis [43]): 29 mm
